Reference: PubChem BioAssay AID1963833 (Molecular Pharmacology Branch, DTP, NCI, 2024)

System: 883617-216-R-J1-PDC complex spheroid viability
Experiment: Anticancer human tumor 883617-216-R-J1-PDC patient-derived bladder carcinoma cell line growth inhibition [POLQ]
Conditions: for IC50: curve of first compound; for viability, T/C: stronger effect = lower value; active = viability on the fitted dose curve at most 10% of control; inactive = the rest
Method in brief: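 Growth inhibition in 3D: complex spheroids (tumor PDC, HUVEC, MSC) treated with POLQ inhibitor combinations; where Cmax unknown, highest tested concentration 10 microM, except SN-38 at 1 microM.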

[1] = second compound 0.0316 µM, first compound 0.0316 µM
[2] = second compound 0.0316 µM, first compound 0.1 µM
[3] = second compound 0.0316 µM, first compound 0.316 µM
[4] = second compound 0.0316 µM, first compound 1 µM
[5] = second compound 0.0316 µM, first compound 3.16 µM
[6] = second compound 0.0316 µM, first compound 10 µM
[7] = second compound 0.1 µM, first compound 0.0316 µM
[8] = second compound 0.1 µM, first compound 0.1 µM
[9] = second compound 0.1 µM, first compound 0.316 µM
[10] = second compound 0.1 µM, first compound 1 µM
[11] = second compound 0.1 µM, first compound 3.16 µM
[12] = second compound 0.1 µM, first compound 10 µM
[13] = second compound 0.316 µM, first compound 0.0316 µM
[14] = second compound 0.316 µM, first compound 0.1 µM
[15] = second compound 0.316 µM, first compound 0.316 µM
[16] = second compound 0.316 µM, first compound 1 µM
[17] = second compound 0.316 µM, first compound 3.16 µM
[18] = second compound 0.316 µM, first compound 10 µM
[19] = second compound 1 µM, first compound 0.0316 µM
[20] = second compound 1 µM, first compound 0.1 µM
[21] = second compound 1 µM, first compound 0.316 µM
[22] = second compound 1 µM, first compound 1 µM
[23] = second compound 1 µM, first compound 3.16 µM
[24] = second compound 1 µM, first compound 10 µM
[25] = second compound 3.16 µM, first compound 0.0316 µM
[26] = second compound 3.16 µM, first compound 0.1 µM
[27] = second compound 3.16 µM, first compound 0.316 µM
[28] = second compound 3.16 µM, first compound 1 µM
[29] = second compound 3.16 µM, first compound 3.16 µM
[30] = second compound 3.16 µM, first compound 10 µM
[31] = second compound 10 µM, first compound 0.0316 µM
[32] = second compound 10 µM, first compound 0.1 µM
[33] = second compound 10 µM, first compound 0.316 µM
[34] = second compound 10 µM, first compound 1 µM
[35] = second compound 10 µM, first compound 3.16 µM
[36] = second compound 10 µM, first compound 10 µM
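Note: spheroids exposed to compounds for seven days before readout.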
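Throughout, for viability, T/C: 100% = DMSO vehicle control viability.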

C=CC(=O)N1CCN(c2nc(=O)n(-c3c(C)ccnc3C(C)C)c3nc(-c4c(O)cccc4F)c(F)cc23)C(C)C1 (stereo not drawn) + Cc1cccc(N(C)C(=O)C2C(O)CCN2c2nc(C)cc(C(F)(F)F)c2C#N)c1
> 10 µM: IC50 (second compound 0.0316 µM) | IC50 (second compound 0.1 µM) | IC50 (second compound 0.316 µM) | IC50 (second compound 1 µM) | IC50 (second compound 3.16 µM) | IC50 (second compound 10 µM)
inactive: viability, T/C [1] 72.4% | viability, T/C [2] 66.9% | viability, T/C [3] 75.6% | viability, T/C [4] 84.9% | viability, T/C [5] 84.2% | viability, T/C [6] 73.4% | viability, T/C [7] 74.2% | viability, T/C [8] 79.3% | viability, T/C [9] 75.6% | viability, T/C [10] 80.8% | viability, T/C [11] 79.2% | viability, T/C [12] 81.3% | viability, T/C [13] 80.2% | viability, T/C [14] 62% | viability, T/C [15] 72% | viability, T/C [16] 82.8% | viability, T/C [17] 85.1% | viability, T/C [18] 87.2% | viability, T/C [19] 71.4% | viability, T/C [20] 66.2% | viability, T/C [21] 67.3% | viability, T/C [22] 83.2% | viability, T/C [23] 90.6% | viability, T/C [24] 79.9% | viability, T/C [25] 65% | viability, T/C [26] 59.8% | viability, T/C [27] 68.6% | viability, T/C [28] 76.1% | viability, T/C [29] 100% | viability, T/C [30] 78.3% | viability, T/C [31] 78.3% | viability, T/C [32] 77.3% | viability, T/C [33] 84% | viability, T/C [34] 86.6% | viability, T/C [35] 101% | viability, T/C [36] 82.7%

CC(C)n1c(=O)n(C)c2cnc3cc(F)c(-c4ccc(OCCCN5CCCCC5)nc4)cc3c21 + Cc1cccc(N(C)C(=O)C2C(O)CCN2c2nc(C)cc(C(F)(F)F)c2C#N)c1
inactive: viability, T/C [1] 105% | viability, T/C [2] 96.2% | viability, T/C [3] 108% | viability, T/C [4] 90% | viability, T/C [5] 83.9% | viability, T/C [6] 59.9% | viability, T/C [7] 108% | viability, T/C [8] 111% | viability, T/C [9] 105% | viability, T/C [10] 98.7% | viability, T/C [11] 91.5% | viability, T/C [12] 62% | viability, T/C [13] 107% | viability, T/C [14] 93.6% | viability, T/C [15] 97.2% | viability, T/C [16] 110% | viability, T/C [17] 92.8% | viability, T/C [18] 59% | viability, T/C [19] 95.9% | viability, T/C [20] 108% | viability, T/C [21] 96.1% | viability, T/C [22] 98.7% | viability, T/C [23] 96.6% | viability, T/C [24] 59.5% | viability, T/C [25] 100% | viability, T/C [26] 107% | viability, T/C [27] 105% | viability, T/C [28] 108% | viability, T/C [29] 95.6% | viability, T/C [30] 65.3% | viability, T/C [31] 108% | viability, T/C [32] 112% | viability, T/C [33] 114% | viability, T/C [34] 98.3% | viability, T/C [35] 105% | viability, T/C [36] 63.4%
> 10 µM: IC50 (second compound 0.0316 µM) | IC50 (second compound 0.1 µM) | IC50 (second compound 0.316 µM) | IC50 (second compound 1 µM) | IC50 (second compound 3.16 µM) | IC50 (second compound 10 µM)

CC1COCCN1c1cc(C2(O)CC3CCC(C2)O3)c2cnn(-c3ccn[nH]3)c2n1 (stereo not drawn) + Cc1cccc(N(C)C(=O)C2C(O)CCN2c2nc(C)cc(C(F)(F)F)c2C#N)c1
0.188 µM: IC50 (second compound 0.316 µM)
0.125 µM: IC50 (second compound 1 µM)
0.173 µM: IC50 (second compound 0.1 µM) | IC50 (second compound 3.16 µM)
inactive: viability, T/C [1] 76.6% | viability, T/C [2] 58.4% | viability, T/C [3] 35.7% | viability, T/C [4] 33.7% | viability, T/C [5] 23.9% | viability, T/C [6] 23.9% | viability, T/C [7] 80.4% | viability, T/C [8] 54.9% | viability, T/C [9] 41.2% | viability, T/C [10] 37.9% | viability, T/C [11] 26.8% | viability, T/C [12] 23.2% | viability, T/C [13] 71% | viability, T/C [14] 61.2% | viability, T/C [15] 38.6% | viability, T/C [16] 35.8% | viability, T/C [17] 24.2% | viability, T/C [18] 24% | viability, T/C [19] 78.6% | viability, T/C [20] 48.8% | viability, T/C [21] 41.7% | viability, T/C [22] 33% | viability, T/C [23] 27.9% | viability, T/C [24] 23.2% | viability, T/C [25] 79.3% | viability, T/C [26] 54.9% | viability, T/C [27] 44.9% | viability, T/C [28] 31.6% | viability, T/C [29] 26.4% | viability, T/C [30] 23.4% | viability, T/C [31] 81.5% | viability, T/C [32] 60.3% | viability, T/C [33] 39.3% | viability, T/C [34] 42.4% | viability, T/C [35] 31.4% | viability, T/C [36] 23.9%
0.156 µM: IC50 (second compound 0.0316 µM)
0.215 µM: IC50 (second compound 10 µM)

CCc1cc2c(N3CCc4c(cc(Cn5ccnc5)cc4-c4cn(C)nc4C(F)(F)F)C3=O)cc(C)nc2c(OC)n1 + Cc1cccc(N(C)C(=O)C2C(O)CCN2c2nc(C)cc(C(F)(F)F)c2C#N)c1
8.3 µM: IC50 (second compound 0.1 µM)
8.25 µM: IC50 (second compound 10 µM)
inactive: viability, T/C [1] 87.4% | viability, T/C [2] 95.6% | viability, T/C [3] 91.7% | viability, T/C [4] 91.7% | viability, T/C [5] 72.8% | viability, T/C [6] 41.8% | viability, T/C [7] 86.1% | viability, T/C [8] 102% | viability, T/C [9] 94.5% | viability, T/C [10] 97.6% | viability, T/C [11] 72.8% | viability, T/C [12] 45.6% | viability, T/C [13] 81.3% | viability, T/C [14] 89.2% | viability, T/C [15] 98.8% | viability, T/C [16] 83.8% | viability, T/C [17] 69.9% | viability, T/C [18] 53% | viability, T/C [19] 89.1% | viability, T/C [20] 88.3% | viability, T/C [21] 106% | viability, T/C [22] 92.5% | viability, T/C [23] 71.1% | viability, T/C [24] 43.8% | viability, T/C [25] 99.8% | viability, T/C [26] 94.4% | viability, T/C [27] 102% | viability, T/C [28] 84.8% | viability, T/C [29] 74.6% | viability, T/C [30] 58.3% | viability, T/C [31] 107% | viability, T/C [32] 110% | viability, T/C [33] 93% | viability, T/C [34] 95.3% | viability, T/C [35] 69.9% | viability, T/C [36] 45.9%
7.69 µM: IC50 (second compound 1 µM)
> 10 µM: IC50 (second compound 0.316 µM) | IC50 (second compound 3.16 µM)
7.4 µM: IC50 (second compound 0.0316 µM)
